Where a chain is given by its changes, count along the chain named. “Also recorded” adds a separate entry of the source.
Tests used:
[1] = system: primary rat cardiomyocytes; assay: Phenylephrine (PE)-induced hypertrophy in primary cardiomyocytes (phalloidin cell area, RT-PCR, western blot); assay type: cell-based
Description: The magnitude of cardiac hypertrophy was then evaluated by directly measuring the cell area after Alexa Fluor 488 phalloidin staining.
Primary cultures of cardiac myocytes were prepared from neonatal rat hearts using the Neonatal Heart Dissociation Kit (MACS, Germany) according to the manufacturer's protocol. Cardiomyocyte cultures were plated in gelatin‐coated plates in a plating medium containing 10% serum. After 24 h of plating, the medium was then replaced with a serum‐free maintenance medium and incubated for another 24 h before being used for further study.
For phenylephrine (PE)‐mediated cardiac hypertrophy, cardiomyocytes cultured in 6‐well plates were stimulated with PE (50 µmol) for 48 h in serum‐free medium with or without Ext.R or HBT (50 µmol) treatment. Cardiomyocytes were lysed in cell lysis buffer to isolate protein or total RNA for western blotting or PCR analysis.
Phenylephrine (PE) was obtained from Aladdin.
Phalloidin Staining and Immunofluorescence
To determine phenylephrine-induced hypertrophy, Alexa Fluor 488 Phalloidin (Cell Signaling) was used to fluorescently stain the cytoskeleton by the binding of phalloidin to F­actin. In brief, cells were fixed for 15 min using 4% paraformaldehyde then rinsed three times in PBS.
Following incubation of Alexa Fluor 488 Phalloidin and Hoechst for 15 min at room temperature, cells were rinsed once with PBS. Images were carried out using an ImageXpress Micro® Confocal High-Content Imaging System (Molecular Devices).

SGK1 [2] = molecular target: T1, SGK1 (Homo sapiens, UniProt O00141); assay: KINOMEscan direct binding assay (Eurofins Discovery)
T1 sequence (O00141 1-431): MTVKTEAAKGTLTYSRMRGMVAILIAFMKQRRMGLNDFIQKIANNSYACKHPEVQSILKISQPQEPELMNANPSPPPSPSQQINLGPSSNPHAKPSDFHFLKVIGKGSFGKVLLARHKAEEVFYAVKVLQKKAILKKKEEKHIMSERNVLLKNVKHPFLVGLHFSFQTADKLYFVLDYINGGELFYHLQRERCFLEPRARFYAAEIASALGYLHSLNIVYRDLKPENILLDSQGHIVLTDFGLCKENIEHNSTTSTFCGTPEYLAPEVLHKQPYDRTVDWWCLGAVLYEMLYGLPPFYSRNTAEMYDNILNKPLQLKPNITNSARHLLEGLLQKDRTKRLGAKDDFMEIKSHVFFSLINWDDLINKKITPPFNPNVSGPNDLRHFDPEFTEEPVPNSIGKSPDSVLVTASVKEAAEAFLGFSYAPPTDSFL
Description: (§1) To identify active compounds with SGK1 inhibitory activity from Ext.R, a novel mass‐spectrometry based kinase inhibitory assay was developed. A polypeptide sequence ([…], m/z: 618.6) derived from glycogen Synthase Kinase‐3(GSK3), a known substrate of SGK1, was optimized and synthesized. We subsequently used liquid chromatography coupled with mass spectrometry (LC/MS) to detect and quantify its phosphorylation level ([…](p)FAE, m/z:658.7) (Figure 3A).^[ [26] ^] Basal level SGK1 was supplemented to each well, and the peak area of phosphorylation was measured in the presence or absence of testing compounds. […] After investigating the major chemical constituents in Ext.R (Table S3, Supporting Information), a set of compounds in Ext.R were subsequently screened for their impacts on SGK1 activity. […] The direct interaction between HBT and SGK1 was further verified by temperature‐ and dose‐dependent cellular thermal shift assays (Figure 3E,F). We further performed a direct binding assay of HBT to SGK1 by KINOMEscan assay (Eurofins Discovery).
The initial crystal structures of SGK1 (PDB entry: 3HDN, 3HDM, and 2R5T) were obtained from the Protein Data Bank (PDB). The prepared inhibitors were then docked by Glide with the extra precision (XP) scoring mode to estimate the binding affinity for each protein–ligand complex. The detailed process of docking has been described previously.^[ [46] ^] […]

SGK1 [3] = molecular target: T1, SGK1; assay: Cellular thermal shift assay in cell lysates; assay type: binding
Description: as §1
Figure 3 Mass spectrometry‐based kinase inhibitory assay for screening SGK1 inhibitor. A) Illustration of the mass spectrometry‐based assay for screening SGK1 inhibitors. […] G) Direct binding assay of HBT to SGK1 by KINOMEscan assay (Eurofins Discovery).

[4] = molecular target: T2, SGK1 protein with the D177A mutation (Homo sapiens, UniProt O00141, D177A); assay: MS-based kinase inhibitory assay with FLAG-tagged mutated SGK1 immunoprecipitated from HEK293T; assay type: biochemical; conditions: normalized to WT SGK1
T2 construct: host or cells: HEK293T
T2 sequence (O00141 1-431 D177A): T1 sequence (O00141 1-431) with D177A
Description: To further elaborate the interaction between SGK1 and HBT, the SGK1‐HBT complex was constructed by molecular docking based on the SGK1 crystal structures retrieved from the Protein Data Bank (PDB). […] To explore the impacts of these three residues on the SGK1‐HBT binding, plasmids carrying respective SGK1 mutations (D177A, N227A, and T239A) were designed and transfected in the human embryonic kidney cells (HEK293T). The FLAG‐tagged wild‐type or mutated SGK1 protein lysates were collected by immunoprecipitation and examined for enzymatic activity in the presence of HBT using MS‐based kinase inhibitory assay.
The initial crystal structures of SGK1 (PDB entry: 3HDN, 3HDM, and 2R5T) were obtained from the Protein Data Bank (PDB). The prepared inhibitors were then docked by Glide with the extra precision (XP) scoring mode to estimate the binding affinity for each protein–ligand complex. The detailed process of docking has been described previously.^[ [46] ^] HEK293T cells were transfected with SGK1 mutant plasmids. After 24 h, cells were lysed and immunoprecipitated with anti‐FLAG antibody and beads. Immune complexes were washed with kinase buffer and incubated in kinase buffer with substrate peptide for 1 h at 30 ℃ followed by LC/MS measurement as described above. KINOMEscan Profiling Service and KinaseProfiler Service Assay were provided by Eurofins Discovery.

O=c1c(O)c(-c2ccc(O)cc2)oc2c(O)c(O)cc(O)c12 [HBT, herbacetin]
PE-induced hypertrophy, cardiomyocyte cell area ([1]; 50 µmol PE 48 h, Ext.R 50 µg mL−1 or HBT 50 µmol): attenuate PE‐induced hypertrophy
transcriptional level of ANP and BNP ([1]; 50 µmol PE, Ext.R or HBT): inhibited
phosphorylation of SGK1 and FoxO1 ([1]; PE stimulation, western blot): significantly reduce
protein expression of ACTA1, BNP and Myosin ([1]; PE stimulation, western blot): significantly reduced
phosphorylation level of NF-κB p65 (Ser536) ([1]; PE-treated cardiomyocytes): did not affect
phosphorylation of Nedd4l ([1]; induced by PE): reduce the phosphorylation
Kd (SGK1 [2]; KINOMEscan, read-out: binding constants (Kds) for SGK1): 840 nM
Kd fold lower than EMD638683 (SGK1 [2]; same KINOMEscan assay): 14 fold
thermal stability of SGK1, concentration-dependent cellular thermal shift assay (SGK1 [3]; 65 °C): increases the thermal stability of SGK1
thermal stability of SGK1, temperature-dependent cellular thermal shift assay (SGK1 [3]; HBT 100 µmol): increases the thermal stability of SGK1
inhibition of D177A-mutated SGK1 by HBT [4]: completely ablates; also recorded: almost completely lost its response
